Measured values as given in patent US12577247B2 (BUGWORKS RESEARCH, INC., priority 2021, dated 2026).

Experiments:
A2A receptor = target: T1, A2A receptor (Homo sapiens, UniProt P29274); assay: A2aR antagonism IC50, cAMP TR-FRET in HEK-293 cells, high concentration of adenosine (30 μM); assay type: cell-based; details: HEK-293 cells expressing A2A receptor; agonist adenosine 30 μM; 2% HSA; inhibition of cAMP; read-out: A2AR IC50 (nM) (@30 μM Adenosine);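 further: compounds added 10 min before adenosine, then 30 min stimulation at room temperature in buffer with 100 µM rolipram and 30 µM EHNA, signal read 1 h after detection reagents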
T1 construct: host or cells: HEK-293

A2B receptor = target: T2, A2B receptor (Homo sapiens, UniProt P29275); assay: A2bR antagonism IC50, cAMP TR-FRET in HEK-293 cells, high concentration of adenosine (30 μM); details: A2BR IC50 (nM) (@30 μM Adenosine), HEK-293 cells expressing A2B receptor; agonist adenosine 30 μM; 2% HSA; inhibition of cAMP;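 further: compounds preincubated 10 min with cells, then adenosine stimulation 30 min at room temperature in buffer with Rolipram 100 µM and EHNA 30 µM, TR-FRET read after 1 h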
T2 sequence (P29275 1-332): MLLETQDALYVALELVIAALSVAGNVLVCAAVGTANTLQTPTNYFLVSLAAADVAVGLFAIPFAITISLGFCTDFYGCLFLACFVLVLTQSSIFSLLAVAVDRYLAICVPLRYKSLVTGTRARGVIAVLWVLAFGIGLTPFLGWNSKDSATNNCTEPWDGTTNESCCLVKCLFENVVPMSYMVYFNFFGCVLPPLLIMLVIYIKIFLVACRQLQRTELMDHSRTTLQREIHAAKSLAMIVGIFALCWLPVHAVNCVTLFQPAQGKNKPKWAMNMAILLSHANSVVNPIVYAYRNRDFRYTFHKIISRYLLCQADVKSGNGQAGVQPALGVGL

T1 sequence (P29274 whole entry): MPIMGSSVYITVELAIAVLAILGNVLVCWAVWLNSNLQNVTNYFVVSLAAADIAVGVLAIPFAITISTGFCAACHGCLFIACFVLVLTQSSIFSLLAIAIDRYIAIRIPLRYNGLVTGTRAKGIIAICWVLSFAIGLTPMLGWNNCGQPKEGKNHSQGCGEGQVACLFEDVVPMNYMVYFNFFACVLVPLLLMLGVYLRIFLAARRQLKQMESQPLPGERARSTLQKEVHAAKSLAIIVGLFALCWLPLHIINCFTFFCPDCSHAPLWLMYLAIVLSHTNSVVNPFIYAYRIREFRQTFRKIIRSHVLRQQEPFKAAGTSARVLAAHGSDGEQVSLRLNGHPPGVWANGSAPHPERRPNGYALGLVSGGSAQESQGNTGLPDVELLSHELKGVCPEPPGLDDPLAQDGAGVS

Row | Compound | IC50 (A2A receptor) | IC50 (A2B receptor)
1 | CCc1c(C)nn2c(N)c(C#N)c(NCCc3ccn(C4(CNCC[S+](C)[O-])CC4)n3)nc12 (single isomer, unassigned; (-)) [Example 163a, (−)-7-amino-3-ethyl-2-methyl-5-((2-(1-(1-(((2-(methylsulfinyl)ethyl)amino)methyl)cyclopropyl)-1H-pyrazol-3-yl)ethyl)amino) pyrazolo[1,5-a]pyrimidine-6-carbonitrile] | 72 nM | 11100 nM
2 | CCCc1c(C)nn2c(N)c(C#N)c(NCCc3ccn(C4CCC4CO)n3)nc12 (single isomer, unassigned; (-)) [Example 165b, (−)-7-amino-5-((2-(1-(2-(hydroxymethyl)cyclobutyl)-1H-pyrazol-3-yl)ethyl)amino)-2-methyl-3-propylpyrazolo[1,5-a]pyrimidine-6-carbonitrile] | 1540 nM | 9160 nM
3 | Cc1nn2c(N)c(C#N)c(NCCc3ccn(C4(CN)CC4)n3)nc2c1Cl [Example 68, 7-amino-5-((2-(1-(1-(aminomethyl)cyclopropyl)-1H-pyrazol-3-yl)ethyl)amino)-3-chloro-2-methylpyrazolo[1,5-a]pyrimidine-6-carbonitrile] | 161 nM | 9380 nM
4 | Cc1nn2c(N)c(C#N)c(NCCc3ccn(C4(CO)CC4)n3)nc2c1Br [Example 69, 7-amino-3-bromo-5-((2-(1-(1-(hydroxymethyl)cyclopropyl)-1H-pyrazol-3-yl)ethyl)amino)-2-methylpyrazolo[1,5-a]pyrimidine-6-carbonitrile] | 68 nM | 2050 nM
5 | CCn1cccc(CCNc2nc3c(Cl)c(C)nn3c(N)c2C#N)c1=O [Example 70, 7-amino-3-chloro-5-((2-(1-ethyl-2-oxo-1,2-dihydropyridin-3-yl)ethyl)amino)-2-methylpyrazolo[1,5-a]pyrimidine-6-carbonitrile] | 125 nM | > 15000 nM
6 | CCc1cnn2c(N)c(C#N)c(NCCc3ccn(C4(CO)CC4)n3)nc12 [Example 71, 7-amino-3-ethyl-5-((2-(1-(1-(hydroxymethyl)cyclopropyl)-1H-pyrazol-3-yl)ethyl)amino) pyrazolo[1,5-a] pyrimidine-6-carbonitrile] | 158 nM | 2820 nM
7 | Cc1nn2c(N)c(C#N)c(NCCc3cccc(CO)n3)nc2c1Br [Example 72, 7-amino-3-bromo-5-((2-(6-(hydroxymethyl)pyridine-2-yl)ethyl)amino)-2-methylpyrazolo[1,5-a]pyrimidine-6-carbonitrile] | 362 nM | 3120 nM
8 | Cc1nn2c(N)c(C#N)c(NCCc3cnn(C4(CO)CC4)c3)nc2c1Cl [Example 73, 7-amino-3-chloro-5-((2-(1-(1-(hydroxymethyl)cyclopropyl)-1H-pyrazol-4-yl)ethyl)amino)-2-methylpyrazolo[1,5-a] pyrimidine-6-carbonitrile] | > 15000 nM | > 15000 nM
9 | Cc1nn2c(N)c(C#N)c(NCCc3ccn(C4(CO)CC4)n3)nc2c1CC1CC1 [Example 74, 7-amino-3-(cyclopropylmethyl)-5-((2-(1-(1-(hydroxymethyl)cyclopropyl)-1H-pyrazol-3-yl)ethyl)amino)-2-methylpyrazolo[1,5-a]pyrimidine-6-carbonitrile] | 398 nM | 1080 nM
10 | Cc1nn2c(N)c(C#N)c(NCCc3cc(C)n(C4(CO)CC4)n3)nc2c1Cl [Example 75, 7-amino-3-chloro-5-((2-(1-(1-(hydroxymethyl)cyclopropyl)-5-methyl-1H-pyrazol-3-yl)ethyl)amino)-2-methylpyrazolo[1,5-a]pyrimidine-6-carbonitrile] | 43 nM | 7150 nM
11 | CCc1c(C)nn2c(N)c(C#N)c(NCCc3cc(C)n(C4(CO)CC4)n3)nc12 [Example 76, 7-amino-3-ethyl-5-((2-(1-(1-(hydroxymethyl)cyclopropyl)-5-methyl-1H-pyrazol-3-yl)ethyl)amino)-2-methylpyrazolo[1,5-a]pyrimidine-6-carbonitrile] | 50 nM | 1590 nM
12 | Cc1nn2c(N)c(C#N)c(NCCc3cccn(C)c3=O)nc2c1Cl [Example 87, 7-amino-3-chloro-2-methyl-5-((2-(1-methyl-2-oxo-1,2-dihydropyridin 3-yl)ethyl)amino) pyrazolo[1,5-a]pyrimidine-6-carbonitrile] | 80 nM | 1760 nM
13 | CCc1c(C)nn2c(N)c(C#N)c(NCCc3cccn(C)c3=O)nc12 [Example 88, 7-amino-3-ethyl-2-methyl-5-((2-(1-methyl-2-oxo-1,2-dihydropyridin-3-yl)ethyl)amino) pyrazolo[1,5-a]pyrimidine-6-carbonitrile] | 286 nM | 1300 nM
14 | Cc1nn2c(N)c(C#N)c(NCCc3cc(C)n(C4(CO)CC4)n3)nc2c1Br [Example 89, 7-amino-3-bromo-5-((2-(1-(1-(hydroxymethyl)cyclopropyl)-5-methyl-1H-pyrazol-3-yl)ethyl)amino)-2-methylpyrazolo[1,5-a]pyrimidine-6-carbonitrile] | 66 nM | 2370 nM
15 | Cc1nn2c(N)c(C#N)c(NCCc3cccc(CNCCO)n3)nc2c1Cl [Example 90, 7-amino-3-chloro-5-((2-(6-(((2-hydroxyethyl)amino)methyl)pyridin-2-yl)ethyl)amino)-2-methylpyrazolo[1,5-a]pyrimidine-6-carbonitrile] | 77 nM | 1830 nM
16 | CCc1c(C)nn2c(N)c(C#N)c(NCCc3ccc(F)c(CO)n3)nc12 [Example 91, 7-amino-3-ethyl-5-((2-(5-fluoro-6-(hydroxymethyl)315yridine-2-yl)ethyl)amino)-2-methylpyrazolo[1,5-a]pyrimidine-6-carbonitrile] | 628 nM | 1620 nM
17 | COCCn1cccc(CCNc2nc3c(Cl)c(C)nn3c(N)c2C#N)c1=O [Example 92, 7-amino-3-chloro-5-((2-(1-(2-methoxyethyl)-2-oxo-1,2-dihydropyridin-3-yl)ethyl)amino)-2-methylpyrazolo[1,5-a]pyrimidine-6-carbonitrile] | 79 nM | 5640 nM
18 | Cc1nn2c(N)c(C#N)c(NCCc3cccn(CCO)c3=O)nc2c1Cl [Example 93, 7-amino-3-chloro-5-((2-(1-(2-hydroxyethyl)-2-oxo-1,2-dihydropyridin-3-yl)ethyl)amino)-2-methylpyrazolo[1,5-a]pyrimidine-6-carbonitrile] | 50 nM | 1230 nM
19 | Cc1nn2c(N)c(C#N)c(NCCc3ccn(C4(CO)CC4)n3)nc2c1C(F)(F)F [Example 94, 7-amino-5-((2-(1-(1-(hydroxymethyl)cyclopropyl)-1H-pyrazol-3-yl)ethyl)amino)-2-methyl-3-(trifluoromethyl) pyrazolo[1,5-a]pyrimidine-6-carbonitrile] | 104 nM | 10000 nM
20 | CCc1c(C)nn2c(N)c(C#N)c(NCCc3cccc(CNCCO)n3)nc12 [Example 97, 7-amino-3-ethyl-5-((2-(6-(((2-hydroxyethyl)amino)methyl)pyridine-2-yl)ethyl)amino)-2-methylpyrazolo[1,5-a]pyrimidine-6-carbonitrile] | 451 nM | 1430 nM
21 | Cc1nn2c(N)c(C#N)c(NCCc3ccn(C4(CNCCO)CC4)n3)nc2c1Cl [Example 98, 7-amino-3-chloro-5-((2-(1-(1-(((2-hydroxyethyl)amino)methyl)cyclopropyl)-1H-pyrazol-3-yl)ethyl)amino)-2-methylpyrazolo[1,5-a]pyrimidine-6-carbonitrile] | 100 nM | > 15000 nM
22 | Cc1nn2c(N)c(C#N)c(NCCc3ccn(C4(CNC(=O)CCO)CC4)n3)nc2c1Cl [Example 99, N-((1-(3-(2-((7-amino-3-chloro-6-cyano-2-methylpyrazolo[1,5-a]pyrimidin-5-yl)amino)ethyl)-1H-pyrazol-1-yl)cyclopropyl)methyl)-3-hydroxypropanamide] | 69 nM | 20000 nM
23 | Cc1nn2c(N)c(C#N)c(NCCc3ccn(C4(CO)CC4)n3)nc2c1C1CC1 [Example 101, 7-amino-3-cyclopropyl-5-((2-(1-(1-(hydroxymethyl)cyclopropyl)-1H-pyrazol-3-yl)ethyl)amino)-2-methylpyrazolo[1,5-a]pyrimidine-6-carbonitrile] | 2100 nM | > 15000 nM
24 | CCc1c(C(F)F)nn2c(N)c(C#N)c(NCCc3ccn(C4CCC4CO)n3)nc12 (stereo not shown) [Example 102, 7-amino-2-(difluoromethyl)-3-ethyl-5-((2-(1-(2-(hydroxymethyl)cyclobutyl)-1H-pyrazol-3-yl)ethyl)amino) pyrazolo[1,5-a]pyrimidine-6-carbonitrile] | 804 nM | 8300 nM
25 | CCc1c(C)nn2c(N)c(C#N)c(NCCc3ccn(C4(CNCCO)CC4)n3)nc12 [Example 106, 7-amino-3-ethyl-5-((2-(1-(1-(((2-hydroxyethyl)amino)methyl)cyclopropyl)-1H-pyrazol-3-yl)ethyl)amino)-2-methylpyrazolo[1,5-a]pyrimidine-6-carbonitrile] | 75 nM | 4390 nM
26 | CCc1c(C)nn2c(N)c(C#N)c(NCCc3cccn(CCOC)c3=O)nc12 [Example 107, 7-amino-3-ethyl-5-((2-(1-(2-methoxyethyl)-2-oxo-1,2-dihydropyridin-3-yl)ethyl)amino)-2-methylpyrazolo[1,5-a] pyrimidine-6-carbonitrile] | 224 nM | 1550 nM
